Results: patent publication US7972831B2, “Lipases from thermophilic anaerobes” (Novozymes A/S, priority 2004, dated 2011)
“And” between values parts separate entries of the source, which are not always exact repeats. Equal values may be shown once.

How the values were obtained:
[1] = tested on: lipase of SEQ ID NO: 2; assay: Substrate specificity with triacylglycerols; format: biochemical, Thermoanaerobacter thermohydrosulfuricus; conditions: triacylglycerol 10 mM, pH 8.0, 25 h at 70° C.
Experimental: The lipase of SEQ ID NO: 2 was tested by reaction with various triacylglycerols 10 mM (pH 8.0) as substrates: for 25 h at 70° C. Similar results were obtained with the lipase of SEQ ID NO: 4.

[2] = tested on: lipase; assay: Effects of metal ions on lipase activity; format: biochemical; conditions: metal ions up to 10 mM
Description: The activity was decreased by the following ions: Zn2+, Fe2+, Fe3+ and Cr3+.

[3] = tested on: lipase of SEQ ID NO: 2; assay: Enantioselectivity of ester hydrolysis; format: biochemical, Thermoanaerobacter thermohydrosulfuricus
Experimental: The (S)-alcohols were formed. The lipase was more enantioselective towards butynol butyrate than towards butynol acetate. Over time the conversion increased for all four substrates and reached above 20-30% after 24 h of reactions time. Over time in the contrast to the conversion the enantioselectivity of the enzyme towards both substrates decreased for butynol butyrate from 16.7 to 8.06 and for butynol acetate from 9.15 to 2.65 after 40 h of reactions time. […] For two other substrates the enantioselectivity of the lipase (E≧1) was constant over time.

| Compound | lipase activity in the presence of metal ions [2] | further results |
| --- | --- | --- |
| CCCCCCCC(=O)OCC(COC(=O)CCCCCCC)OC(=O)CCCCCCC [Tricaprylin, Tricaprylin (C8:0)] |  | Relative activity [1]: 100 |
| [Cu+2] [Cu2+] | nearly unchanged |  |
| [Mn+2] [Mn2+] | nearly unchanged |  |
| CCCCCCCCCC(=O)OCC(COC(=O)CCCCCCCCC)OC(=O)CCCCCCCCC [Tricaprin, Tricaprin (C10:0)] |  | Relative activity [1]: 15 |
| butynol butyrate |  | enantiopreference [3]: (S)-preference; lipase activity towards substrate [3]: active; E-value (enantioselectivity) ([3]; after 40 h of reactions time): 8.06; E-value (enantioselectivity) ([3]; initial value): 16.7 |
| [Cr+3] [Cr3+] | decreased |  |
| [Fe+3] [Fe3+] | decreased |  |
| butynol acetate |  | enantiopreference [3]: (S)-preference; lipase activity towards substrate [3]: active; E-value (enantioselectivity) ([3]; after 40 h of reactions time): 2.65; E-value (enantioselectivity) ([3]; initial value): 9.2 and 9.15 |
| CC(=O)OCC(COC(C)=O)OC(C)=O [Triacetin, Triacetin (C2:0)] |  | Relative activity [1]: 5 |
| [K+] [K+] | nearly unchanged |  |
| [Fe+2] [Fe2+] | decreased |  |
| CCCC(=O)OCC(COC(=O)CCC)OC(=O)CCC [Tributyrin, Tributyrin (C4:0)] |  | Relative activity [1]: 10 |
| [Ni+2] [Ni2+] | nearly unchanged |  |
| [Al+3] [Al3+] | nearly unchanged |  |
| [Rb+] [Rb+] | nearly unchanged |  |
| [Ag+] [Ag+] | nearly unchanged |  |
| [Na+] [Na+] | nearly unchanged |  |
| [Co+2] [Co2+] | nearly unchanged |  |
| CC(=O)OC(C)c1ccccc1 (stereo not shown) [1-phenyl-1-ethyl-acetate] |  | lipase activity towards substrate [3]: active |
| [Zn+2] [Zn2+] | decreased |  |
| CC(=O)OC(C)Cc1ccccc1 (stereo not shown) [1-phenyl-2-propyl-acetate] |  | lipase activity towards substrate [3]: active |
| [Sr+2] [Sr2+] | nearly unchanged |  |
| [Ca+2] [Ca2+] | nearly unchanged |  |
| [Mg+2] [Mg2+] | nearly unchanged |  |
| CCCCCC(=O)OCC(COC(=O)CCCCC)OC(=O)CCCCC [Tricaproin, Tricaproin (C6:0)] |  | Relative activity [1]: 74 |
